Experimental data: US12485191B2, “Radiopharmaceuticals and methods of use thereof” (BOARD OF REGENTS OF THE UNIVERSITY OF NEBRASKA, priority 2017, dated 2025)
Marks after values point to notes of the source that are not given here.

Assays:
HT-29 xenograft tumors = assay: Biodistribution study in HT-29 xenograft mouse model; assay type: in vivo, mice
Description: Female SCID mice (5 weeks of age) received subcutaneous injections of HT-29 cells (5×10^6) suspended in Matrigel® into the flanks. When the tumor size reached 80 mm^3 (two weeks after injection), the mice were randomized into three groups and intravenously injected with 10 μCi (0.37 MBq) of the purified ^177Lu labeled conjugates via tail vein. The mice were sacrificed and the tissues were excised at 4, 24, and 72 hours post-injection time points. The blood, tumor, and excised tissues were weighed. The radioactivity for each sample was measured using a gamma counter. The percentage injected dose per gram (% ID/g) and the radioactivity ratios between tumor and non-targeted tissues were calculated.

NTSR1 = target: T1, NTSR1 (Homo sapiens, UniProt P30989); assay: In vitro competitive neurotensin receptor binding in HT-29 cells vs 177Lu-N1; conditions: unlabeled conjugates
T1 construct: endogenous in cells; host or cells: HT-29 human colon cancer cells (ATCC)
Description: In Vitro Competitive Neurotensin Receptor Binding Studies
The IC50 for the unlabeled conjugates binding to the neurotensin receptors was determined using the HT-29 human colon cancer cell line. […]. Med. Biol., 42:816), served as the competitive radioligand for comparing the relative binding affinities of the conjugates. HT-29 cells (˜1×10^6) suspended in 100 μL of McCoy's 5A medium (pH 7.4, 4.8 mg/mL HEPES, and 2 mg/mL BSA) were incubated with 177Lu-N1 (100,000 cpm, 100 μL) at 37° C. for 45 minutes in the presence of the conjugates with predetermined concentrations (0.5 nM-1 μM) in 100 μL of medium. At the end of the incubation, the cells were centrifuged, aspirated, and washed with fresh medium (5×500 μL). The cell-associated radioactivity was measured using gamma counter and the IC50 values determined by nonlinear regression using GraphPad Prism 5. All measurements were in biological triplicate.

[1] = target: T2, cathepsin B (human Liver) (Homo sapiens, UniProt P07858); assay: Inhibition constant (Ki) of the compounds to cathepsin B; assay type: biochemical; conditions: read-out: CatB K1
T2 construct: from tissue; host or cells: human liver
Description: Determination of the Km and Vmax of Cathepsin B for Z-Arg-Arg-AMC
The solution of cathepsin B (human Liver) (50 μL, 2 nM) in assay buffer used above was mixed with 50 μL of solution of substrate Z-Arg-Arg-AMC in the assay buffer at different concentrations ([S]) (25 μM, 50 μM, 100 μM, 500 μM and 1 mM). The mixture was incubated at 37° C. and the fluorescence of the liberated aminomethylcoumarin at 460 nM using 355 nm excitation was measured at predetermined time points (0, 2, 4, 6, 8, and 10 minutes). The fluorescence intensity was plotted versus time and the reaction rates (v0) were calculated as the slope of the trend lines obtained by liner regression. Km and maximum reaction rate (Vmax-obs) was determined from the equation v0=Vmax[S]/(Km+[S]) and solved by nonlinear regression using GraphPad Prism 5. All measurements were in biological triplicate.
Determination of the Inhibition Constant (Ki) of the Compounds to Cathepsin B
The cathepsin B (human Liver) in assay buffer (25 μL) was mixed with the conjugate (25 μL) in 96-well plate. After the solution was mixed, the Z-Arg-Arg-AMC in assay buffer (50 μL) was added to the well, yielding a final cathepsin B concentration of 1 nM, conjugate concentration ([C]) of 15 nM or 5 μM, and substrate concentration ([S]) of 25 μM, 50 μM, 100 μM, 500 μM and 1 mM. The mixture was incubated at 37° C. and the fluorescence of the liberated aminomethylcoumarin at 460 nM using 355 nm excitation was measured at predetermined time points (0, 2, 4, 6, 8, and 10 minutes). The fluorescence intensity was plotted versus time with observed reaction rates (v0-obs) calculated as the slope of the trend lines obtained by liner regression. The observed rate constant (Kobs) and observed maximum reaction rate (Vmax-obs) was determined from the equation v0-obs=Vmax-obs [S]/(Kobs+[S]) and solved by nonlinear regression using GraphPad Prism 5. The Ki was calculated from the equation Kobs=Km (1+[C]/Ki). All measurements were in biological triplicate.

[2] = Distribution coefficient (Log D7.4) of the conjugates; assay type: physicochemical
Description: Distribution Coefficient (Log D7.4) of the Conjugates The distribution coefficient was determined for each ^177Lu-labeled conjugate. In a 1.5 mL centrifuge tube, 0.5 mL of 1-octanol was added to 0.5 mL of PBS (pH 7.4) containing the radiolabeled peptide (500,000 cpm). The solution was vigorously vortexed for 2 minutes at room temperature and subsequently centrifuged to yield two immiscible layers. The radioactivity of the aliquots (100 μL) taken from each layer were quantified by the gamma counter and the Log D7.4 for each conjugates was calculated.

CatB = CatB (Homo sapiens, UniProt P07858); assay: CatB inhibition of GRPR-targeted agents; assay type: biochemical
Description: The Inhibition of Cathepsin B Activity by the Conjugates The phosphate buffer (0.1 M, pH=5.8) containing EDTA (1 mM), DTT (2.7 mM), and Brij®35 (0.03%) was prepared before the assay. […] The solution of cathepsin B (human Liver) in assay buffer (50 μL, 0.544 nM) was added to the mixture which was further incubated at 37° C. for 20 minutes. The fluorescence of the liberated aminomethylcoumarin at 460 nM using 355 nm excitation was measured and the IC50 of the cathepsin B inhibition versus the samples without the inhibitor was determined by nonlinear regression using GraphPad Prism 5.

PC-3 tumor = conditions: mouse, in vivo
[3] = determined by radiometric analysis, 177Lu-labeled conjugate

T1 sequence (P30989 whole entry): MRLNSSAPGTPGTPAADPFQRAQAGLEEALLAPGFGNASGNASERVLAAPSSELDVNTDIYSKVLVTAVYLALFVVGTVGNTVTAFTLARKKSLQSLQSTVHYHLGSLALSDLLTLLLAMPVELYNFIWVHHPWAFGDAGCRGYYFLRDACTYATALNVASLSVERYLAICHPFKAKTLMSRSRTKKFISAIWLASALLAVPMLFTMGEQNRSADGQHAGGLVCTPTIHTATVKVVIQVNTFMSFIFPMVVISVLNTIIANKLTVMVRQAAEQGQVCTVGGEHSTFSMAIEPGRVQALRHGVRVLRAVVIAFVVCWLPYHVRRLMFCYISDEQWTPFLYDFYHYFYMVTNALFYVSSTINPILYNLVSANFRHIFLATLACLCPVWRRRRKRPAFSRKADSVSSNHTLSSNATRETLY

IC50 (NTSR1)	Ki [1]	Compound	logD7.4 [2, 3]	further results
20 ± 2 nM	25 ± 4 nM	Cc1cc(C)c(C(=O)OCC(=O)[C@H](CCCCn2cc(C[C@H](NC(=O)CN3CCN(CC(=O)O)CCN(CC(=O)O)CCN(CC(=O)O)CC3)C(=O)NCCC(=O)N[C@@H](CCCCN)C(=O)N3CCC[C@H]3C(=O)N(C)[C@@H](CCCNC(=N)N)C(=O)N[C@@H](CCCNC(=N)N)C(=O)N3CCC[C@H]3C(=O)N[C@@H](Cc3c(C)cc(O)cc3C)C(=O)N[C@H](C(=O)N[C@@H](CC(C)C)C(=O)O)C(C)(C)C)nn2)NC(=O)[C@H](Cc2ccccc2)NC(=O)OCc2ccccc2)c(C)c1 [Compound 2a]	−1.46 ± 0.02^b	
22 ± 2 nM	26 ± 5 nM	Cc1cc(C)c(C(=O)OCC(=O)[C@H](CCCCNC(=O)Cn2cc(C[C@H](NC(=O)CN3CCN(CC(=O)O)CCN(CC(=O)O)CCN(CC(=O)O)CC3)C(=O)NCCC(=O)N[C@@H](CCCCN)C(=O)N3CCC[C@H]3C(=O)N(C)[C@@H](CCCNC(=N)N)C(=O)N[C@@H](CCCNC(=N)N)C(=O)N3CCC[C@H]3C(=O)N[C@@H](Cc3c(C)cc(O)cc3C)C(=O)N[C@H](C(=O)N[C@@H](CC(C)C)C(=O)O)C(C)(C)C)nn2)NC(=O)[C@H](Cc2ccccc2)NC(=O)OCc2ccccc2)c(C)c1 [Compound 2b]	−1.49 ± 0.02^b	
20 ± 3 nM	73 ± 8 nM	Cc1cc(C)c(C(=O)OCC(=O)[C@H](CCCCNC(=O)CNC(=O)[C@@H](CO)NC(=O)[C@@H](CO)NC(=O)[C@@H](CO)NC(=O)Cn2cc(C[C@H](NC(=O)CN3CCN(CC(=O)O)CCN(CC(=O)O)CCN(CC(=O)O)CC3)C(=O)NCCC(=O)N[C@@H](CCCCN)C(=O)N3CCC[C@H]3C(=O)N(C)[C@@H](CCCNC(=N)N)C(=O)N[C@@H](CCCNC(=N)N)C(=O)N3CCC[C@H]3C(=O)N[C@@H](Cc3c(C)cc(O)cc3C)C(=O)N[C@H](C(=O)N[C@@H](CC(C)C)C(=O)O)C(C)(C)C)nn2)NC(=O)[C@H](Cc2ccccc2)NC(=O)OCc2ccccc2)c(C)c1 [Compound 2d]	−1.79 ± 0.06^b	

Continued, compound first:

Compound	IC50 (NTSR1)	Ki [1]	logD7.4 [2, 3]	further results
Cc1cc(C)c(C(=O)OCC(=O)[C@H](CCCCNC(=O)CNC(=O)[C@@H](CO)NC(=O)[C@@H](CO)NC(=O)[C@@H](CO)NC(=O)Cn2cc(C[C@H](NC(=O)CN3CCN(CC(=O)O)CCN(CC(=O)O)CCN(CC(=O)O)CC3)C(=O)N[C@H](CO)C(=O)N[C@H](CO)C(=O)N[C@H](CO)C(=O)N[C@@H](CCCCN)C(=O)N3CCC[C@H]3C(=O)N(C)[C@@H](CCCNC(=N)N)C(=O)N[C@@H](CCCNC(=N)N)C(=O)N3CCC[C@H]3C(=O)N[C@@H](Cc3c(C)cc(O)cc3C)C(=O)N[C@H](C(=O)N[C@@H](CC(C)C)C(=O)O)C(C)(C)C)nn2)NC(=O)[C@H](Cc2ccccc2)NC(=O)OCc2ccccc2)c(C)c1 (177Lu complex, metal not drawn) [Compound 2f]				retention in liver and kidney compared to 3b (in words) (HT-29 xenograft tumors; HT-29 xenograft mice): significantly increased retention; increase in retention in the tumors compared to control 3b (HT-29 xenograft tumors; HT-29 xenograft, after 24 hours): nearly two-fold increase; increase in tumor uptake (HT-29 xenograft tumors; HT-29 xenograft, by 24 hours): 25%
Cc1cc(C)c(C(=O)OCC(=O)[C@H](CCCCNC(=O)CNC(=O)[C@@H](CO)NC(=O)[C@@H](CO)NC(=O)[C@@H](CO)NC(=O)Cn2cc(C[C@H](NC(=O)CN3CCN(CC(=O)O)CCN(CC(=O)O)CCN(CC(=O)O)CC3)C(=O)N[C@H](CO)C(=O)N[C@H](CO)C(=O)N[C@H](CO)C(=O)N[C@@H](CCCCN)C(=O)N3CCC[C@H]3C(=O)N(C)[C@@H](CCCNC(=N)N)C(=O)N[C@@H](CCCNC(=N)N)C(=O)N3CCC[C@H]3C(=O)N[C@@H](Cc3c(C)cc(O)cc3C)C(=O)N[C@H](C(=O)N[C@@H](CC(C)C)C(=O)O)C(C)(C)C)nn2)NC(=O)[C@H](Cc2ccccc2)NC(=O)OCc2ccccc2)c(C)c1 [Compound 2f]	18 ± 2 nM	50 ± 13 nM		
CC(C)C[C@H](NC(=O)CCC(=O)O)C(=O)N[C@@H](CCCNC(=N)N)C(=O)NCCn1cc(C[C@H](NC(=O)CN2CCN(CC(=O)O)CCN(CC(=O)O)CCN(CC(=O)O)CC2)C(=O)NCCOCCOCCOCCOCCC(=O)N[C@H](Cc2ccccc2)C(=O)N[C@@H](CCC(N)=O)C(=O)N[C@@H](Cc2c[nH]c3ccccc23)C(=O)N[C@@H](C)C(=O)N[C@H](C(=O)NCC(=O)N[C@@H](Cc2c[nH]cn2)C(=O)N[C@@H](CC(C)C)[C@@H](O)CC(=O)N[C@H](CC(C)C)C(N)=O)C(C)C)nn1 [^177Lu-C-ANT, metal not drawn]				inhibition of catB (in words) (CatB): no inhibition; tumor retention (PC-3 tumor): 15%; logD7.4 ([2]; GRPR-targeted agents): −1.9 ± 0.1
